The subject of experiment [1] is overweight and obese patients. Particulars: 4 clinical studies, more than 6000 overweight and obese patients; cited from earlier work.
For the next experiment, the system named is ob/ob mice. The experiment is described as follows: Impact of CB2 antagonist on epididymal fat inflammatory gene expression in obese ob/ob mice (quantitative RT-PCR). Type of experiment: in vivo, mouse. The following applies: 1 mg/kg daily intraperitoneal over 17 days, six week-old ob/ob mice. On the procedure: Animals and Experimental Design: Experimental protocols were conducted in accordance with French government policies (Services véterinaires de la Santé et de la production animale, Ministère français de l'Agriculture). Animals were housed under 12 hours of light/12 hours of dark cycle, in a temperature-controlled environment. The impact of the CB2 antagonist AM630 was evaluated in 6 week-old male obese Lep^Ob/Lep^Ob male mice (ob/ob) and lean Lep^Ob+/Lep^Ob counterparts (ob+/ob). Mice received an 17 day-course of daily intraperitoneal injection of 1 mg/kg AM630 (n=10 ob/ob and n=5 ob+/ob) or vehicle (n=8 ob/ob and n=5 ob+/ob). AM630 (Tocris) was freshly dissolved in a vehicle solution containing 1 drop of Tween 80 in 0.1 ml dimethylsulfoxide (DMSO), sonicated, and further diluted 50 times in NaCl 9‰. Body weight and food intake were measured daily. Mice were sacrificed after overnight fasting. White epididymal adipose tissue was removed, weighed and either fixed in buffered formalin, or snap frozen in liquid nitrogen. All samples were stored at −80° C. until use.
RNA preparation and RT-PCR: Total RNA was extracted from mice epididymal fat using RNeasy® Lipid Tissue Mini kit (QIAGEN). Quantitative RT-PCR was carried out on a Light Cycler (Roche Diagnostics), as previously described.
The PCR amplified products were analyzed on a 2% agarose gel, and sequenced.

For `Cc1c(C(=O)NN2CCCCC2)nn(-c2ccc(Cl)cc2Cl)c1-c1ccc(Cl)cc1` [rimonabant, Rimonabant], in experiment [1], the “efficacy with regard to weight loss and reduction of the associated cardiometabolic risks” value is reported as “consistent efficacy”.

Take `COc1ccc(C(=O)c2c(C)n(CCN3CCOCC3)c3cc(I)ccc23)cc1` [AM 630]: the fat inflammatory response entry in the experiment with ob/ob mice (epididymal fat, vs vehicle) is given as “reduced”. Also, in the experiment on ob/ob mice (vs vehicle (FIG. 16, p<0.05)), the “F4/80 mRNA expression in epididymal fat” value is listed as “lesser induction”, the “MCP-1 mRNA expression in epididymal fat” value was “lesser induction” and the “TNF-alpha mRNA expression in epididymal fat” value was “lesser induction”.

Source of the values: patent US8575125B2, “Selective inhibitors of CB2 receptor expression and/or activity for the treatment of obesity and obesity-related disorders” (Institut National de la Sante et de la Recherche Medicale …, priority 2007, dated 2013).
